Experimental data published in US20070292492A1, “PHARMACEUTICAL FORMULATIONS FOR IONTOPHORETIC TETRACYCLINE ANTIBIOTIC DELIVERY” (priority 2006, published 2007).
Counter-ions that a name gives are not always drawn. Like-named read-outs stand apart in the source and are kept apart here.

Columns and labels:
[1] = In vivo intracutaneous microdialysis with cathodal iontophoresis; set-up: species or system hairless rat; conditions: 10 mg/mL, pH ~9.3; cathodal iontophoresis 200-400 μA/cm^2 for 0.5-4 hours; 4 hours of application time
Method: In vivo microdialysis studies were undertaken to determine the effect of current and time on the transdermal delivery of tetracycline using iontophoresis. The study placed a tetracycline formulation (10 mg/mL, pH ˜9.3) in a cartridge designed for iontophoresis. […] Cathodal iontophoresis current was varied from 200-400 μA/cm^2 for a period of 0.5-4 hours. The microdialysis dialysate samples collected were analyzed using HPLC. Potential skin irritation was monitored using chromameter, laser Doppler velocimetry (LDV) and transepidermal water loss (TEWL).

[2] = assay type: in vitro ADME, hairless rat
Method: • Freshly excised full thickness hairless rat skin (approximately 1 mm thick) was mounted in between the donor and receptor compartments of the horizontal diffusion cells with the stratum corneum facing the donor compartment. • The receptor compartment contained phosphate buffer (4 ml) at pH 7.4, and the donor compartment contained one of the following tetracycline hydrochloride solutions (4 ml): water (pH 2.1, 37 mg/ml), citrate buffer (pH 3.0, 9 mg/ml), phosphate buffer (pH 8.0, 0.7 mg/ml), or Teorell buffer (pH 8.3, 5.9 mg/ml, pH 11.9: 20 mg/ml). • The apparatus was maintained at 32° C., with constant stirring in both the donor and receptor compartments using magnetic stir bars to maintain sink conditions. • Silver/Silver chloride electrodes were used for iontophoresis. The area of skin exposed to the donor was 0.64 cm^2. • Current densities of 0.2 and 0.3 mA/cm^2 were applied for 1 h; and current density of 0.4 mA/cm^2 was applied for 30 min, 1 h and 2 h. Samples were collected for a period of 10 h. Both anodal and cathodal iontophoresis were performed. • At predetermined intervals, 0.5 ml of sample was collected from the receptor chamber and replenished with 0.5 ml of phosphate buffer (pH7.4). Analysis of Tetracycline Hydrochloride: • Samples from the receptor chamber were analyzed for the amount of tetracycline hydrochloride using a Shimadzu HPLC with a reverse phase column (Phenomenex, Luna C18 column with 5μ pore size). • The composition of the mobile phase used was 0.01N oxalic acid and acetonitrile (75:25) at a flow rate of 0.8 ml/min using a detection wavelength of 360 nm. Results: • The cumulative amount of drug permeating through the skin passively at the end of 10 h was 1.7±0.45 μg/cm^2 (FIG. 1). • Iontophoresis improved the delivery of the drug across the skin. i) The cumulative amount permeated through the skin at the end of 10 h by anodal iontophoresis for 1 h was 11.18±2.02 μg/cm^2. ii) The cumulative amount of the drug delivered at the end of 10 h by cathodal iontophoresis for 1 h was 19.65±6.9 μg/cm^2 (FIGS. 1 and 2). The current density used was 0.4 mA/cm^2 in both the cases. • The cumulative amount of drug permeated through the skin increased with an increase in the current density. The cumulative amount of the drug permeated through the skin over 10 hours increased from 5.85±0.72 μg/cm^2 to 19.65±6.9 μg/cm^2 with an increase in the current density from 0.2 mA/cm^2 to 0.4 mA/cm^2 (FIG. 3). • The amount of drug permeated through the skin increased with an increase in the duration of current application. […] For a donor concentration of 10 mg/ml, 22.11 μg/cm^2 of tetracycline hydrochloride permeated through the skin as compared to 8.25 μg/cm^2 delivered from a donor concentration of 2.5 mg/ml (FIG. 5). For all the above studies except anodal iontophoresis, tetracycline hydrochloride solution in borate buffer at pH 9.4 was employed. For anodal iontophoresis, tetracycline hydrochloride in citrate buffer at pH 3.0 has been used.

| Structure (SMILES) | tetracycline concentration in the skin by microdialysis as a function of duration of current application [1] | amount of tetracycline hydrochloride permeated through the skin ([2]; hairless, rat, 2.5 mg/ml, pH 9.4) | amount of tetracycline hydrochloride permeated through the skin ([2]; hairless, rat, 10 mg/ml, pH 9.4) | cumulative amount permeated through the skin at the end of 10 h by anodal iontophoresis ([2]; hairless, rat, 10 h, 9 mg/ml, pH 3) | cumulative amount of drug permeating through the skin passively at the end of 10 h ([2]; hairless, rat, 10 h, pH 9.4) | cumulative amount of the drug delivered at the end of 10 h by cathodal iontophoresis ([2]; hairless, rat, 10 h, pH 9.4) | cumulative amount of the drug permeated through the skin over 10 hours ([2]; hairless, rat, 10 h, pH 9.4) | cumulative amount of drug permeated through the skin, cathodal iontophoresis compared to anodal iontophoresis or passive delivery ([2]; pH 9.4) |
| --- | --- | --- | --- | --- | --- | --- | --- | --- |
| CN(C)[C@@H]1C(O)=C(C(N)=O)C(=O)[C@@]2(O)C(O)=C3C(=O)c4c(O)cccc4[C@@](C)(O)[C@H]3C[C@@H]12 [tetracycline] | highest amount of tetracycline concentration |  |  |  |  |  |  |  |
| CN(C)[C@@H]1C(O)=C(C(N)=O)C(=O)[C@@]2(O)C(O)=C3C(=O)c4c(O)cccc4[C@@](C)(O)[C@H]3C[C@@H]12 [tetracycline hydrochloride] |  | 8.25 μg/cm^2 | 22.11 μg/cm^2 | 11.18±2.02 μg/cm^2 | 1.7±0.45 μg/cm^2 | 19.65±6.9 μg/cm^2 | 5.85±0.72 μg/cm^2 | significantly increased |
